Results taken from PubChem BioAssay (NCI).
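Dose response: 5 concentrations. Exposure: 48 h. Format: 96-well plates. Endpoint: linear interpolation; highest concentration if not reached. Abbreviation: GI50, concentration required for 50% inhibition of growth. TGI denotes the concentration required for complete inhibition of growth.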

Columns and labels:
Assay in all cases: DTP human tumour cell line panel, 48 h
786-0 renal = tested on: 786-0 renal
A498 renal = tested on: A498 renal
A549 NSCLC = tested on: A549 NSCLC
ACHN renal = tested on: ACHN renal
BT-549 breast = tested on: BT-549 breast
CAKI-1 renal = tested on: CAKI-1 renal
CCRF-CEM leukemia = tested on: CCRF-CEM leukemia
COLO 205 colon = tested on: COLO 205 colon
DU-145 prostate = tested on: DU-145 prostate
EKVX NSCLC = tested on: EKVX NSCLC
HCC-2998 colon = tested on: HCC-2998 colon
HCT-116 colon = tested on: HCT-116 colon
HCT-15 colon = tested on: HCT-15 colon
HL-60(TB) leukemia = tested on: HL-60(TB) leukemia
HOP-62 NSCLC = tested on: HOP-62 NSCLC
HOP-92 NSCLC = tested on: HOP-92 NSCLC
HS 578T breast = tested on: HS 578T breast
HT29 colon = tested on: HT29 colon
IGROV1 ovarian = tested on: IGROV1 ovarian
K-562 leukemia = tested on: K-562 leukemia
KM12 colon = tested on: KM12 colon
LOX IMVI melanoma = tested on: LOX IMVI melanoma
M14 melanoma = tested on: M14 melanoma
MALME-3M melanoma = tested on: MALME-3M melanoma
MCF7 breast = tested on: MCF7 breast
MDA-MB-231 breast = tested on: MDA-MB-231 breast
MDA-MB-435 = tested on: MDA-MB-435
MOLT-4 leukemia = tested on: MOLT-4 leukemia
NCI-H226 lung = tested on: NCI-H226 lung
NCI-H23 lung = tested on: NCI-H23 lung
NCI-H460 lung = tested on: NCI-H460 lung
NCI-H522 lung = tested on: NCI-H522 lung
NCI/ADR-RES ovarian = tested on: NCI/ADR-RES ovarian
OVCAR-3 ovarian = tested on: OVCAR-3 ovarian
OVCAR-4 ovarian = tested on: OVCAR-4 ovarian
OVCAR-5 ovarian = tested on: OVCAR-5 ovarian
OVCAR-8 ovarian = tested on: OVCAR-8 ovarian
PC-3 prostate = tested on: PC-3 prostate
RPMI-8226 leukemia = tested on: RPMI-8226 leukemia
RXF 393 renal = tested on: RXF 393 renal
SF-268 CNS = tested on: SF-268 CNS
SF-295 CNS = tested on: SF-295 CNS
SF-539 CNS = tested on: SF-539 CNS
SK-MEL-2 melanoma = tested on: SK-MEL-2 melanoma
SK-MEL-28 melanoma = tested on: SK-MEL-28 melanoma
SK-MEL-5 melanoma = tested on: SK-MEL-5 melanoma
SK-OV-3 ovarian = tested on: SK-OV-3 ovarian
SN12C renal = tested on: SN12C renal
SNB-19 CNS = tested on: SNB-19 CNS
SNB-75 CNS = tested on: SNB-75 CNS
SR leukemia = tested on: SR leukemia
SW-620 colon = tested on: SW-620 colon
TK-10 renal = tested on: TK-10 renal
U251 CNS = tested on: U251 CNS
UACC-257 melanoma = tested on: UACC-257 melanoma
UACC-62 melanoma = tested on: UACC-62 melanoma
UO-31 renal = tested on: UO-31 renal
T-47D breast = tested on: T-47D breast

## O=S(=O)(Nc1cccc2ccccc12)c1ccc(-c2cnc(C3CC3)o2)cc1
786-0 renal
  GI50: 71.2 nM
  TGI: > 82900 nM
A498 renal
  GI50: 33.4 nM
  TGI: 500 nM
A549 NSCLC
  GI50: 141 nM
  TGI: > 100000 nM
ACHN renal
  GI50: 68.4 nM
  TGI: > 100000 nM
BT-549 breast
  GI50: 4200 nM
  TGI: 34800 nM
CAKI-1 renal
  GI50: 46.3 nM
  TGI: > 81700 nM
CCRF-CEM leukemia
  GI50: 41.2 nM
  TGI: > 100000 nM
COLO 205 colon
  GI50: 99 nM
  TGI: 1350 nM
DU-145 prostate
  GI50: 144 nM
  TGI: > 100000 nM
EKVX NSCLC
  GI50: 276 nM
  TGI: > 91400 nM
HCC-2998 colon
  GI50: 220 nM
  TGI: 23900 nM
HCT-116 colon
  GI50: 47.3 nM
  TGI: > 74500 nM
HCT-15 colon
  GI50: 50.5 nM
  TGI: > 42000 nM
HL-60(TB) leukemia
  GI50: 30.1 nM
  TGI: 388 nM
HOP-62 NSCLC
  GI50: 99.5 nM
  TGI: > 89700 nM
HOP-92 NSCLC
  GI50: < 19.3 nM
  TGI: 4790 nM
HS 578T breast
  GI50: 56.3 nM
  TGI: > 76100 nM
HT29 colon
  GI50: 48.4 nM
  TGI: > 68900 nM
IGROV1 ovarian
  GI50: 62.6 nM
  TGI: > 100000 nM
K-562 leukemia
  GI50: 41.7 nM
  TGI: > 73200 nM
KM12 colon
  GI50: 49.8 nM
  TGI: 14900 nM
LOX IMVI melanoma
  GI50: 48.8 nM
  TGI: 26000 nM
M14 melanoma
  GI50: 76.4 nM
  TGI: > 48500 nM
MALME-3M melanoma
  GI50: 12100 nM
  TGI: 67300 nM
MCF7 breast
  GI50: 32.9 nM
  TGI: > 57700 nM
MDA-MB-231 breast
  GI50: 389 nM
  TGI: > 48700 nM
MDA-MB-435
  GI50: 24.3 nM
  TGI: 85.4 nM
MOLT-4 leukemia
  GI50: 101 nM
  TGI: > 49400 nM
NCI-H226 lung
  GI50: 106 nM
  TGI: 30600 nM
NCI-H23 lung
  GI50: 186 nM
  TGI: 31500 nM
NCI-H460 lung
  GI50: 43.5 nM
  TGI: 12600 nM
NCI-H522 lung
  GI50: 61.2 nM
  TGI: 24000 nM
NCI/ADR-RES ovarian
  GI50: 45.5 nM
  TGI: 16700 nM
OVCAR-3 ovarian
  GI50: 42.5 nM
  TGI: 15700 nM
OVCAR-4 ovarian
  GI50: 88 nM
  TGI: > 100000 nM
OVCAR-5 ovarian
  GI50: 450 nM
  TGI: > 100000 nM
OVCAR-8 ovarian
  GI50: 347 nM
  TGI: > 100000 nM
PC-3 prostate
  GI50: 47.4 nM
  TGI: > 59900 nM
RPMI-8226 leukemia
  GI50: 53.6 nM
  TGI: 20000 nM
RXF 393 renal
  GI50: 23.7 nM
  TGI: 141 nM
SF-268 CNS
  GI50: 716 nM
  TGI: > 100000 nM
SF-295 CNS
  GI50: 40.1 nM
  TGI: 15600 nM
SF-539 CNS
  GI50: 42.3 nM
  TGI: 2070 nM
SK-MEL-2 melanoma
  GI50: 2420 nM
  TGI: 56500 nM
SK-MEL-28 melanoma
  GI50: 3440 nM
  TGI: > 100000 nM
SK-MEL-5 melanoma
  GI50: 56.8 nM
  TGI: 3410 nM
SK-OV-3 ovarian
  GI50: 2190 nM
  TGI: > 85800 nM
SN12C renal
  GI50: 508 nM
  TGI: > 64600 nM
SNB-19 CNS
  GI50: 63 nM
  TGI: > 100000 nM
SNB-75 CNS
  GI50: 30.1 nM
  TGI: 82500 nM
SR leukemia
  GI50: 40.2 nM
  TGI: > 34300 nM
SW-620 colon
  GI50: 48.9 nM
  TGI: > 100000 nM
TK-10 renal
  GI50: 19700 nM
  TGI: > 100000 nM
U251 CNS
  GI50: 74.5 nM
  TGI: 97100 nM
UACC-257 melanoma
  GI50: 5940 nM
  TGI: 45700 nM
UACC-62 melanoma
  GI50: 40.2 nM
  TGI: 23500 nM
UO-31 renal
  GI50: 74.5 nM
  TGI: > 59200 nM

## COc1cc(-c2nnc(SCc3ccc(O)c4ncccc34)n2-c2ccccc2)cc(OC)c1OC
786-0 renal
  GI50: 498 nM
  TGI: > 20900 nM
A498 renal
  GI50: 320 nM
  TGI: 2320 nM
A549 NSCLC
  GI50: 412 nM
  TGI: > 100000 nM
ACHN renal
  GI50: 285 nM
  TGI: > 100000 nM
BT-549 breast
  GI50: 178 nM
  TGI: > 26000 nM
CAKI-1 renal
  GI50: 274 nM
  TGI: > 100000 nM
CCRF-CEM leukemia
  GI50: 188 nM
  TGI: > 100000 nM
DU-145 prostate
  GI50: 273 nM
  TGI: > 100000 nM
EKVX NSCLC
  GI50: 367 nM
  TGI: > 100000 nM
HCC-2998 colon
  GI50: 447 nM
  TGI: > 100000 nM
HCT-116 colon
  GI50: 97.9 nM
  TGI: > 40300 nM
HCT-15 colon
  GI50: 53 nM
  TGI: > 100000 nM
HL-60(TB) leukemia
  GI50: 276 nM
HOP-62 NSCLC
  GI50: 261 nM
HS 578T breast
  GI50: 161 nM
HT29 colon
  GI50: 2040 nM
  TGI: > 100000 nM
IGROV1 ovarian
  GI50: 272 nM
  TGI: > 100000 nM
K-562 leukemia
  GI50: 83 nM
  TGI: > 100000 nM
KM12 colon
  GI50: 336 nM
  TGI: > 100000 nM
LOX IMVI melanoma
  GI50: 180 nM
  TGI: 4440 nM
M14 melanoma
  GI50: 386 nM
  TGI: 2420 nM
MALME-3M melanoma
  GI50: 336 nM
  TGI: > 20600 nM
MCF7 breast
  GI50: 37.7 nM
  TGI: > 100000 nM
MDA-MB-231 breast
  GI50: 390 nM
  TGI: > 100000 nM
MDA-MB-435
  GI50: 194 nM
  TGI: > 100000 nM
MOLT-4 leukemia
  GI50: 294 nM
  TGI: > 100000 nM
NCI-H226 lung
  GI50: 359 nM
  TGI: > 100000 nM
NCI-H23 lung
  GI50: 75.7 nM
  TGI: > 100000 nM
NCI-H460 lung
  GI50: 50 nM
  TGI: 2030 nM
NCI-H522 lung
  GI50: 86.3 nM
  TGI: 921 nM
NCI/ADR-RES ovarian
  GI50: 67.8 nM
  TGI: > 100000 nM
OVCAR-4 ovarian
  GI50: 400 nM
  TGI: > 100000 nM
OVCAR-5 ovarian
  GI50: 668 nM
  TGI: > 100000 nM
OVCAR-8 ovarian
  GI50: 102 nM
  TGI: > 100000 nM
PC-3 prostate
  GI50: 87.4 nM
  TGI: > 100000 nM
RPMI-8226 leukemia
  GI50: 190 nM
  TGI: > 100000 nM
SF-268 CNS
  GI50: 218 nM
  TGI: > 100000 nM
SF-295 CNS
  GI50: 200 nM
  TGI: > 100000 nM
SF-539 CNS
  GI50: 262 nM
SK-MEL-2 melanoma
  GI50: 197 nM
  TGI: 626 nM
SK-MEL-28 melanoma
  GI50: 367 nM
  TGI: > 100000 nM
SK-MEL-5 melanoma
  GI50: 207 nM
  TGI: 899 nM
SK-OV-3 ovarian
  GI50: 302 nM
  TGI: 23500 nM
SN12C renal
  GI50: 211 nM
  TGI: > 100000 nM
SNB-19 CNS
  GI50: 128 nM
  TGI: > 100000 nM
SNB-75 CNS
  GI50: 229 nM
  TGI: > 20200 nM
SR leukemia
  GI50: 140 nM
  TGI: > 100000 nM
SW-620 colon
  GI50: 158 nM
  TGI: > 100000 nM
T-47D breast
  GI50: 71.2 nM
  TGI: > 100000 nM
TK-10 renal
  GI50: 291 nM
  TGI: > 100000 nM
U251 CNS
  GI50: 66 nM
  TGI: > 100000 nM
UACC-257 melanoma
  GI50: 342 nM
  TGI: 3220 nM
UACC-62 melanoma
  GI50: 331 nM
  TGI: 2340 nM
UO-31 renal
  GI50: 113 nM
  TGI: 991 nM
